Reference: patent US12576166B2, “Contrast agents for detection of enzyme activities based on melanin synthesis” (BOARD OF REGENTS, THE UNIVERSITY OF TEXAS SYSTEM, priority 2020, dated 2026)

Target: cathepsin B (Homo sapiens, UniProt P07858)
Assay: Incubation of Agent 6 with cathepsin B; product read by colour, MSOT and absorbance
Type: biochemical
Settings: pH 6.8, 37° C., overnight
Method: We incubated 2.22 mg/mL ([…], 0.1 mL) of Agent 6 with 2 units of cathepsin B at pH 6.8 and at 37° C. overnight. Although cathepsin B is typically considered to be an endoprotease, this enzyme can work as an exoprotease at lower pH relative to physiological pH 7.4. Also, the extracellular tumor microenvironment is known to be acidic, so that pH 6.8 is a better representation of tumor conditions.
Other samples of were prepared at 1.66, 1.11, 0.84, and 0.55 mg/mL. These solutions were inserted into a customized phantom for a multi spectral optoacoustic imaging instrument (MSOT; also known as photoacoustic imaging) (InVision instrument, iThera Medical). FIG. 12A-FIG. 12D present MSOT or absorbance spectra data for the various concentrations.
The phantoms were imaged at 700-900 nm absorbance wavelengths in 2 nm steps. (FIG. 12A). The samples were also analyzed with a spectrofluorometer with absorbance through the same wavelength range (FIG. 12B), which matched the spectral profile and relative signal intensities of the MSOT spectra. The spectra were broad and featureless, which is expected for a melanin-based product. The signal to noise ratio (SNR) scaled with the concentration of the reactant, providing validation that the MSOT and absorbance signals were derived from the product and was not an artifact of the solution or imaging instrument (FIG. 12C, FIG. 12D).

colour of the resulting solution (indicating melanin produced after cleavage by cathepsin B) (2.22 mg/mL Agent 6, 2 units of cathepsin B): light gray color
Structure (SMILES): CC(=O)NC(Cc1ccccc1)C(=O)NC(CCCCN)C(=O)Nc1ccc(COc2cc3cc[nH]c3cc2O)cc1 (centres unmarked) [Agent 6]
cleavage by cathepsin B to a melanin-based product detectable by MSOT (MSOT 700-900 nm, preliminary results): cleaved by cathepsin B to create a melanin-based product that can be detected by MSOT
